Results reported in patent publication US8318731B2, “Pyrrolopyrimidines” (Janssen Pharmaceutica NV, priority 2007, dated 2012).

How the values were obtained:
PLK4 (h) = biological target: T1, PLK4 (h) (Homo sapiens, UniProt O00444); assay: PLK-4 human kinase scintillation proximity assay (SPA); type: biochemical; conditions: 1 μM ATP, 60 minutes at r.t., read-out: PLK4 pIC50 (converted)
T1 sequence (O00444 1-970): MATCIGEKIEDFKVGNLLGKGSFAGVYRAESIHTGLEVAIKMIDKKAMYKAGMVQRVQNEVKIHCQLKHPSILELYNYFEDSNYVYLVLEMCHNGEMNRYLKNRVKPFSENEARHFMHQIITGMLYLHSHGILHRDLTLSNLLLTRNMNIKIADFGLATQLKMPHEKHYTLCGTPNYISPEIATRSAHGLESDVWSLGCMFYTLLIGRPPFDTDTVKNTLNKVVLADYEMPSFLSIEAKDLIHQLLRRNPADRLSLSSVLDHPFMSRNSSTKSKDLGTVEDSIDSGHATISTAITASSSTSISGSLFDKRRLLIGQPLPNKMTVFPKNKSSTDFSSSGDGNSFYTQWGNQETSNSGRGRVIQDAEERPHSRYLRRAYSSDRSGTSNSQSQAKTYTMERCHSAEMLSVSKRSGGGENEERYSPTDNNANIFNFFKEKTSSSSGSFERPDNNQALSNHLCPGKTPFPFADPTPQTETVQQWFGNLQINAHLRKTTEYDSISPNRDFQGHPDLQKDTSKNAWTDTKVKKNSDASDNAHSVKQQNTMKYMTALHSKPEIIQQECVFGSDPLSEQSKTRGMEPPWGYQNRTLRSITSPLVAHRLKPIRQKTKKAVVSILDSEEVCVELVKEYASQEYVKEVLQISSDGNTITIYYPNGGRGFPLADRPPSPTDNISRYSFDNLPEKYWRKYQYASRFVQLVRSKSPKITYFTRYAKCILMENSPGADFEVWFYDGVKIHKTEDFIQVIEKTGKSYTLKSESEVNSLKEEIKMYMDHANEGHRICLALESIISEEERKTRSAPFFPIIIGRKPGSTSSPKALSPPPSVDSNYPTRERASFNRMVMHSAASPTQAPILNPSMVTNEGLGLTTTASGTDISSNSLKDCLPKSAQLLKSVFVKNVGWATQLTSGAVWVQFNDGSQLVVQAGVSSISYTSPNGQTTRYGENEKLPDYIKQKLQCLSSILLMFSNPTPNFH
Method: The in vitro inhibition of a panel of kinases was assessed using either the scintillation proximity assay (SPA) as described by Cook, N. D. et al., Advances in Experimental Medicine and Biology (1991), 36; p. 525-528.
In the SPA technology the activity of the kinase of interest is measured using an appropriate biotinylated substrate that is incubated with the aforementioned kinase protein in the presence of (^33P) radiolabeled ATP. (^33P) Phosphorylation of the substrate is subsequently measured through binding of the phosphorylated substrate to streptavidine coated beads that are based on the scintillant poly(vinyl toluene) (PVT-Beads). The scintillation intensity is detected by imaging on Leadseeker.
All kinases are pre-diluted to a 10× working concentration prior to addition into the assay. The composition of the dilution buffer for each kinase is detailed below.
In a final reaction volume of 30 μl, PLK4 (h) (19 μg/ml) is incubated with 50 mM Hepes pH 8.0, 10 mM MgCl2, 50 mM NaCl, 1 mM NaF, 1 mM DTT, 10 μM of peptide Biotin-RPRGQRDSSYYWE-OH, 1 μM ATP and 2 nM [γ-^33P-ATP] (6.0 μCi/ml). After incubation of 60 minutes at r.t., the reaction is stopped by addition of 40 μL of stop solution containing 8.7 mM EDTA, BSA 0.17%, 0.17% Triton X-100, 1.7 mg/ml SPA beads (GE-healthcare). The plate is centrifuged and read for Scintillation imaging on Leadseeker.

HCT-116 = assay: Cellular proliferation assay (Alamar blue), HCT-116; type: cell-based; conditions: Homo sapiens; HCT-116 cells; 10% FCS; 72 h with compound; Alamar blue 4 h; read-out: pIC50 HCT-116 (converted)
Method: (§1) Cellular proliferation of these compounds was tested on a panel of different cell lines in the presence of 10% FCS serum (37° C. and 5% (v/v) CO2). In a first step these cells were seeded and incubated for 24 hours in the absence of compound. In the second step the cells were incubated for 72 hours with the compounds to be tested for 72 hours. The viable cell number was finally assessed in a standard Alamar blue cell viability assay.
(§2) The viable cell number was assessed by incubation for either 4 h (HCT-116, H1299) 6 h (U87-MG) or 24 h (A2780, PC3, MDA-MB-231) with Alamar blue (Resazurin 9 μg/ml, K-Ferrocyanide 90 μM, K-Ferricyanide 90 μM) and the converted fluorescent product was quantified on a fluorescent plate readed (544 nm/590 nm). Effect of the compounds is calculated as of on control cells.

H1299 = assay: Cellular proliferation assay (Alamar blue), H1299; type: cell-based; conditions: Homo sapiens, NCI-H1299, H1299 cells; 10% FCS; 72 h with compound; Alamar blue 4 h; read-out: pIC50 H1299 (converted)
Method: as §1, §2

A2780 = assay: Cellular proliferation assay (Alamar blue), A2780; type: cell-based; conditions: Homo sapiens, A2780, A2780 cells; 10% FCS; 72 h with compound; Alamar blue 24 h; read-out: pIC50 A2780 (converted)
Method: as §1, §2

PC3 = assay: Cellular proliferation assay (Alamar blue), PC3; type: cell-based; conditions: Homo sapiens, PC-3, PC-3 cells; 10% FCS; 72 h with compound; Alamar blue 24 h; read-out: pIC50 PC-3 (converted)
Method: as §1, §2

MDA-MB-231 = assay: Cellular proliferation assay (Alamar blue), MDA-MB-231; type: cell-based; conditions: Homo sapiens, MDA-MB-231, MDA-MB-231 cells; 10% FCS; 72 h with compound; Alamar blue 24 h; read-out: pIC50 MDA/MB231 (converted)
Method: as §1, §2

IC50 (PLK4 (h)) [µM] | IC50 (HCT-116) [µM] | IC50 (H1299) [µM] | IC50 (A2780) [µM] | IC50 (PC3) [µM] | IC50 (MDA-MB-231) [µM] | SMILES
0.501 |  |  |  |  |  | CN1CCCN(C)C(=O)CCCOc2cccc(c2)Nc2ncnc3[nH]cc(c23)C1 [Compound 32]
> 10 |  |  |  |  |  | COc1ccc2cc1CN(C)[C@@H](CO)C(=O)N(C)CCCc1c[nH]c3ncnc(c13)N2 [Compound 9]
0.158 |  |  |  |  |  | CN1CCCN(C)C(=O)COc2cc(ccc2OC2CCOC2)Nc2ncnc3[nH]cc(c23)C1 (centres unmarked) [Compound 135]
0.158 | 0.794 | 1.58 | 1 | > 10 | > 10 | CN1CCCN(C)C(=O)COc2cc(ccc2NC(=O)Nc2cc(Cl)cc(Cl)c2)Nc2ncnc3[nH]cc(c23)C1 [Compound 115]
0.0501 | 1.58 | 0.631 | 1.58 | 2 | 6.31 | CC(C)Oc1ccc2cc1OCC(=O)N(C)CCCN(C)Cc1c[nH]c3ncnc(c13)N2 [Compound 100]
> 10 |  |  |  |  |  | COc1ccc2cc1CN(C)[C@@H](Cc1ccccc1)C(=O)N(C)CCCc1c[nH]c3ncnc(c13)N2 [Compound 51]
3.98 | 6.31 | 2.51 | 6.31 | 5.01 | > 10 | CN1CCN(c2ccc3cc2OCCCC(=O)N(C)CCCN(C)Cc2c[nH]c4ncnc(c24)N3)CC1 [Compound 102]
0.794 |  |  |  |  |  | COc1ccc2cc1CCC(=O)N(C)CCCN(C)Cc1c[nH]c3ncnc(c13)N2 [Compound 55]
> 10 |  |  |  |  |  | COc1ccc2cc1CN(C)[C@@H](CC(C)C)C(=O)N(C)CCCc1c[nH]c3ncnc(c13)N2 [Compound 52]
0.501 |  |  |  |  |  | CN1CCCN(C)C(=O)CCCOc2cc(ccc2Cl)Nc2ncnc3[nH]cc(c23)C1 [Compound 43]
2 | > 10 | > 10 | > 10 | > 10 | > 10 | COc1cc2cc(c1OC)OCCCC(=O)N(C)CCCN(C)Cc1c[nH]c3ncnc(c13)N2 [Compound 69]
0.0501 |  |  |  |  |  | CN1CCCN(C)C(=O)COc2cc(ccc2OCc2ccccc2)Nc2ncnc3[nH]cc(c23)C1 [Compound 11]
0.0251 | 1.58 | 3.16 | 0.794 | > 10 | > 10 | CN1CCCN(C)C(=O)COc2cc(ccc2OCC(=O)NC2CCCC2)Nc2ncnc3[nH]cc(c23)C1 [Compound 91]
> 10 | > 10 | > 10 | > 10 | > 10 | > 10 | CN1CCN(c2ccc3cc2OCCCC(=O)N2CCN(CC2)Cc2c[nH]c4ncnc(c24)N3)CC1 [Compound 109]
7.94 |  |  |  |  |  | O=C1CCCOc2cc(ccc2N2CCOCC2)Nc2ncnc3[nH]cc(c23)CN2CCN1CC2 [Compound 110]
0.0398 | 1.58 | 0.794 | 1.58 | 2 | 7.94 | CCCOc1ccc2cc1OCC(=O)N(C)CCCN(C)Cc1c[nH]c3ncnc(c13)N2 [Compound 101]
5.01 | > 10 | 3.98 | > 10 | > 10 | > 10 | CN1CCCN(C)C(=O)CCCOc2cc(cc(C(F)(F)F)c2)Nc2ncnc3[nH]cc(c23)C1 [Compound 83]
6.31 | > 10 | 1.26 | > 10 | > 10 | > 10 | CN1CCN(C)C(=O)CCCOc2cc(cc(C(F)(F)F)c2)Nc2ncnc3[nH]cc(c23)C1 [Compound 93]
> 10 | > 10 | > 10 | > 10 | > 10 | > 10 | COc1cc2cc(c1OC)OCCCC(=O)N(C)CCN(C)Cc1c[nH]c3ncnc(c13)N2 [Compound 95]
> 10 |  |  |  |  |  | COc1ccc2cc1OCC(=O)N[C@H](Cc1ccccc1)CN(C)CCCc1c[nH]c3ncnc(c13)N2 [Compound 39]
5.01 | > 10 | > 10 | > 10 | 10 | > 10 | CN1CCN(c2ccc3cc2OCCCC(=O)N(C)CCN(C)Cc2c[nH]c4ncnc(c24)N3)CC1 [Compound 94]
0.251 | > 10 | > 10 | > 10 | > 10 | > 10 | COc1ccc2cc1OCC(=O)N(C)CC1CN(Cc3c[nH]c4ncnc(c34)N2)C1 [Compound 89]
0.631 |  |  |  |  |  | COc1ccc2cc1OCCCC(=O)NCCCN(C)Cc1c[nH]c3ncnc(c13)N2 [Compound 25]
> 10 | > 10 | 6.31 | > 10 | > 10 | > 10 | CN1CCN(C)C(=O)CCCCOc2cc(cc(C(F)(F)F)c2)Nc2ncnc3[nH]cc(c23)C1 [Compound 92]
7.94 | > 10 | > 10 | > 10 | > 10 | > 10 | CN1CCN(c2ccc3cc2OCCCCC(=O)N2CCN(CC2)Cc2c[nH]c4ncnc(c24)N3)CC1 [Compound 108]
0.0316 |  |  |  |  |  | CN1CCCN(C)C(=O)COc2cc(ccc2OC2CCCC2)Nc2ncnc3[nH]cc(c23)C1 [Compound 90]
0.0251 | 0.0631 | 0.0398 |  | 6.31 | > 10 | CN1CCCN(C)C(=O)COc2cc(ccc2OCCOC2CCCC2)Nc2ncnc3[nH]cc(c23)C1 [Compound 99]
0.0501 | > 10 | > 10 | 3.98 | > 10 | > 10 | CN1CCCN(C)C(=O)COc2cc(ccc2OCC(=O)N2CCOCC2)Nc2ncnc3[nH]cc(c23)C1 [Compound 117]

SMILES | IC50 (PLK4 (h)) [µM] | IC50 (HCT-116) [µM] | IC50 (H1299) [µM] | IC50 (A2780) [µM] | IC50 (PC3) [µM] | IC50 (MDA-MB-231) [µM]
COc1cc2cc(c1OC)OCC(=O)N(C)CCN(C)Cc1c[nH]c3ncnc(c13)N2 [Compound 96] | 5.01 | > 10 | > 10 | > 10 | > 10 | > 10
CN1CCN(C)C(=O)COc2cc(ccc2N2CCOCC2)Nc2ncnc3[nH]cc(c23)C1 [Compound 97] | 0.794 | > 10 | > 10 | > 10 | > 10 | > 10
